The values that follow come from patent US20080287398A1, “COLD MENTHOL RECEPTOR-1 ANTAGONISTS” (priority 2007, published 2008).

Molecules are shown by their SMILES. Several values for one entry are separate records, joined by “and”; a condition that tells them apart may be missing. Equal values may be shown once. Read-outs that look alike come from different tables or passages of the source.

One experiment addresses T1, canine TRPM8 (Canis lupus familiaris, UniProt Q1A7N1).
T1 construct: expressed in transfected cells
The experiment is described as follows: In vitro canine TRPM8 functional assay (Ca2+-sensitive dye, FLIPR/FDSS, icilin activation). Particulars: HEK293 cells expressing canine TRPM8, icilin activation. It counts as cell-based. The method in brief: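 Icilin challenge (final concentration producing ~80% of maximal response) followed a 5 min compound exposure in canine TRPM8-HEK293 cells dye-loaded with Calcium 3. Intracellular Ca2+ was read on FLIPR/FDSS. EC50 and IC50 values came from nonlinear sigmoidal dose-response fits of basal-subtracted, percent-of-maximum data averaged over quadruplicates.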

In another experiment the test system is Male Sprague Dawley rats. The experiment is described as follows: Inhibition of icilin-induced wet-dog shakes in rats. Particulars: rat; 30 mg/kg i.p.; 15′ pre icilin; wet-dog shakes vs vehicle. It is filed as in vivo.
The next experiment relates to Sprague-Dawley rats. Put plainly: CFA-induced paw radiant heat hypersensitivity. It is filed as in vivo, rat. Conditions: rat; for inhibition in vivo at 30 mg/kg: time 1 h, read-out: % Reversal. On the procedure:
Intraplantar injection of Complete Freund's Adjuvant (CFA) in rodents results in a long-lasting inflammatory reaction, characterized by a pronounced hypersensitivity to both thermal and mechanical stimuli. This hypersensitivity peaks between 24-72 hours following injection and can last for several weeks. […] This paradigm also may be conducted with a multiple dosing or a prophylactic dosing regime designed to alter the course of hyperalgesia development. This test predicts the analgesic, anti-allodynic and antihyperalgesic effect of numerous effective clinical agents, including NSAIDS such as acetaminophen, aspirin and ibuprofen, and opioids such as morphine.
Each rat was placed in a test chamber on a warm glass surface and allowed to acclimate for approximately 10 minutes. A radiant thermal stimulus (beam of light) was then focused through the glass onto the plantar surface of each hind paw in turn. The thermal stimulus was automatically shut off by a photoelectric relay when the paw was moved or when the cut-off time was reached (20 seconds for radiant heat at ˜5 Amps). An initial (baseline) response latency to the thermal stimulus was recorded for each animal prior to the injection of CFA. Twenty-four hours following intraplantar CFA injection, the response latency of the animal to the thermal stimulus was then re-evaluated and compared to the animal's baseline response time. […] Immediately following the post-CFA latency assessment, test compound or vehicle (usually Solutol, hydroxypropyl methylcellulose, hydroxypropyl beta-cyclodextrin or PEG-400) was administered i.p. or p.o. to rats. […] The percent reversal (% R) of hypersenstivitiy was calculated according to the following formula:
% Reversal=(Treatment Response-CFA Response)/(Baseline Response-CFA Response)×100.

For another experiment, the system named is male CD1 mice. The experiment is described as follows: Acetic acid graded abdominal irritant test with a 24-hour thioglycolate pretreatment. It is filed as in vivo. Conditions: mouse; 30 mg/kg p.o.; time 1 h; abdominal contractions vs vehicle. On the procedure:
A chemical irritant (such as acetic acid, kaolin, bradykinin, phenyl-p-(benzo) quinine, bromo-acetylcholine, or zymosan) is injected in mice intraperitoneally, causing a contraction of the abdominal musculature, which is characterized by an elongation of the body extending through to the hind limbs. The number of such responses is quantitated and is reduced by pretreatment of analgesic agents, thus forming the basis for a screening test (Collier H O et al. Br J Pharmacol Chemother 1968, 32(2): 295-310). This type of abdominal irritant test has been used to predict the analgesic effect of numerous clinically effective agents, the potency of which in the abdominal irritant test parallels the magnitude of the dose needed in the relief of clinical pain.
One modification of the chemically-induced abdominal irritant model of visceral pain is to pretreat animals with agents known to induce inflammatory responses following intraperitoneal injection (such as LPS, zymosan, or thioglycolate). […] Because of the up-regulation of the TRPM8 receptor in inflammation, TRPM8 antagonists that are effective at reducing the mean number of contractions are predicted to provide antiinflammatory action in human clinical use.
The ability of compounds of Formula (I) to mitigate chemical irritant—induced abdominal contractions following a pre-conditioning inflammatory stimulus were studied. […]

T1 sequence (Q1A7N1 1-1104): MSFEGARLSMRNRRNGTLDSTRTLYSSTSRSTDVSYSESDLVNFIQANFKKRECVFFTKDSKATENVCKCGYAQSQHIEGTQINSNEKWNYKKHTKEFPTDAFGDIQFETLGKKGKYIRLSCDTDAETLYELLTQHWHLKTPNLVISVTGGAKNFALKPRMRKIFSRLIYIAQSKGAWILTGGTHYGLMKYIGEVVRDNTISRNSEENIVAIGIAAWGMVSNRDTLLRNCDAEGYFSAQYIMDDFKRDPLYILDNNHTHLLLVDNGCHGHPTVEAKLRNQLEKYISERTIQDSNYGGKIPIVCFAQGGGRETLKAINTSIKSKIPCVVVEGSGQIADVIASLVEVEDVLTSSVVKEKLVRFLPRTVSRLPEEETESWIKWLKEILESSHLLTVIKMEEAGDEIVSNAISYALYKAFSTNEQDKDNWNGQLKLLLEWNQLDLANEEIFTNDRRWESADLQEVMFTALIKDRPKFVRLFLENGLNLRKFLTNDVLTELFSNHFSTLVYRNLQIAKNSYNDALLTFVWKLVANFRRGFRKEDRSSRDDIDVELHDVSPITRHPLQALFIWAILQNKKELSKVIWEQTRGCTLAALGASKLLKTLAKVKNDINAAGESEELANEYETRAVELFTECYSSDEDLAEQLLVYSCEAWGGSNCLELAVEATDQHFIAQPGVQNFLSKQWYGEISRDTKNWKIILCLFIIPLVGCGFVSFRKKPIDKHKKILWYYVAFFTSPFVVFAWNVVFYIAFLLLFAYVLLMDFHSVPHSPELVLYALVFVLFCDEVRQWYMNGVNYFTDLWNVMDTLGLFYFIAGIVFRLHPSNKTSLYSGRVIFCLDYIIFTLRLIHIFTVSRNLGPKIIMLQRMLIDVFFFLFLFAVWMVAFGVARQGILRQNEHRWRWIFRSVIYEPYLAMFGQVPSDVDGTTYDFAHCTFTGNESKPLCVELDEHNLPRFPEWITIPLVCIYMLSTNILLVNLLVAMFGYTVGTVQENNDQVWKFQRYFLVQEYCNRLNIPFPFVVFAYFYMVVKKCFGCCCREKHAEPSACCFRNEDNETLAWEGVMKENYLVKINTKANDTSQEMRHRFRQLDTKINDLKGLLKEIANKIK

Usually IC50 stands for the concentration that gives 50% inhibition. By % Inhibition is commonly meant the share of the control response that was lost under treatment. High values mean a response far below the control, low ones a response near the control. The term ED50 denotes the midpoint of the dose-response relation. As for `CC(C)OP(=O)(OC(C)C)C(Cc1ccc(F)c(F)c1)c1sc2ccccc2c1Br` (stereo not shown) [Cpd 15, [1-(3-Bromo-benzo[b]thiophen-2-yl)-2-(3,4-difluoro-phenyl)-ethyl]-phosphonic acid diisopropyl ester], the inhibition at 1 µM at canine TRPM8 (HEK293, 1 μM compound, read-out: % I (1 μM)) amounted to 99%. In addition, on canine TRPM8 (eight-point dose-response, read-out: IC50), the half-inhibitory concentration (IC50) is 29 nM and 48 nM and 105 nM. In addition, the “% Inhibition” value with Male Sprague Dawley rats is on record as 71.1%. In addition, the inhibition in vivo at 30 mg/kg in the experiment on Sprague-Dawley rats (ip, 30 mg/kg i.p.) is 95%; with Sprague-Dawley rats (po, 30 mg/kg p.o.), 82%. The median effective dose (ED50) with Sprague-Dawley rats (po, p.o., 3-point dose-response, 10% solutol vehicle, 1 h time point, read-out: oral ED50) came out at 11.4 mg/kg. The “% I” value with male CD1 mice was 33%.
